Patent US20050002983A1, “Devices, methods, and compositions to prevent restenosis” (priority 2003, published 2005)

Columns and labels:
[1] = tested on: Human aortic smooth muscle cells; assay: IC50 by CellTiter-Glo Luminescent Cell Viability Assay, smooth muscle cells; assay type: cell-based
Description: The cells were seeded in duplicate, in opaque-walled 96-well microtiter plates at a cell density of 3,000 cells per well and allowed to attach overnight. Serial dilutions of each drug were added, and the cells were incubated for 96 hours. The IC50 values for the drugs was determined using the CellTiter-Glo Luminescent Cell Viability Assay (Promega, Madison, Wis.), which correlates with the number of live cells.

Solubility in PBS = assay type: physicochemical
[2] = tested on: Human aortic smooth muscle cells (AoSMCs); assay: MTS cell viability/proliferation assay, AoSMC, Days 0-5; conditions: for dose-response of cell viability (optical density): 10, 100, 1,000 nM, SMCs and HUVECs, Days 0-5
Description: Human aortic smooth muscle cells (“AoSMCs”) and human umbilical vein endothelial cells (“HUVECs”) were plated on 96-well culture plates at a density of about 10,000 cells per square centimeter (10,000 cells/cm^2). The density was determined using growth curves determined by calculating the average absolute optical densities (“ODs”, defined as cellular OD—media only OD) for each plating concentration, for each day, and each cell type (AoSMC or HUVEC) over a five-day time period.
Prior to experiments, the AoSMCs and HUVECS were thawed and independently propagated through two- or three population doublings following Clonetics recommendations and standard cell culture techniques. Clonetics Growth Media and Reagents were used without alteration in all aspects of the study described herein unless otherwise noted. […] SMGM contained: 500 ml SMBM-2 basal media, 5% FBS, and all recommended singlequot growth supplements (provided with SMGM-2 bulletkit) ECGM contained: 500 ml EBM basal media, 2% FBS, and all recommended singlequot growth supplements (provided with EGM-bulletkit).
After initial plating all 96-well plates were placed in a standard 37° C., 5% CO2 incubator. Conditions, including media, were not changed except as detailed below. For consecutive 24-hour time-periods, from Day 1 to Day 5, a single 96-well plate was removed from the incubator.
Cell Preparation Source cells were selected at 70-80% confluency of the second or third population doubling since initial thaw. In order to synchronize cell cycle, source cells were changed from standard growth media to media containing 1% serum twenty-four hours prior to experiment (other growth factors were unchanged). On Day 0 of the experiment, source cells were removed from culture dishes by trypsinization (0.05×1 min.-2 min), quantified by hemacytometer after centrifuge (800 RPM×5 min.), and re-suspended in media to obtain a stock solution of about 25,000 cells/ml.
The drugs were dissolved in dimethylsulfoxide (“DMSO”) solvent to make stock solutions, which were then diluted serially in media to three study concentrations (10 nM; 100 nM; and 1,000 nM). The drugs at three concentration each, solvent without drug at three concentrations, and standard media were added independently to cells on the first day of the study only. Cells in two columns (16 wells) for each cell type on each day will not receive drug and serve as internal controls. Cellular viability and proliferation was assessed using the MTS assay for each cell type at each of the six time points.
On Day 1, six hours after initial plating, the media was removed from all wells by vacuum suction; and with the appropriate growth media-drug solution for each of three drugs at three concentrations described above was added to the wells. […]

endothelial cells = assay: Cytotoxicity IC50 against endothelial cells; assay type: cell-based
[3] = Release kinetics of epothilone D from polymer matrices; assay type: physicochemical

For `C=CCNC1=C2C[C@@H](C)C[C@H](OC)[C@H](O)[C@@H](C)/C=C(\C)[C@H](OC(N)=O)[C@@H](OC)/C=C\C=C(/C)C(=O)NC(=CC1=O)C2=O` [17-AAG, 17-allylamino-17-desmethoxygeldanamycin], the IC50 ([1]; smooth muscle cells) was roughly 10 nM, the solubility (Solubility in PBS) was 60 micrograms/mL and the “dose-response of cell viability (optical density)” value (“dose-response of cell viability” below) [2] was “dose-response characteristics consistent with utility to reduce or prevent restenosis”. For the same compound, the IC50 (endothelial cells) was 350 nM.
For `CO[C@H]1/C=C\C=C(/C)C(=O)NC2=CC(=O)C(NCCN(C)C)=C(C[C@@H](C)C[C@H](OC)[C@H](O)[C@@H](C)/C=C(\C)[C@@H]1OC(N)=O)C2=O` [17-DMAG, 17-[2-(dimethylamino)ethylamino]-17-desmethoxygeldanamycin], the “dose-response of cell viability” value [2] was “dose-response characteristics consistent with utility to reduce or prevent restenosis” and the “selectivity for SMCs over ECs” value ([2]; AoSMC vs HUVEC viability, 10-1,000 nM) was “relative selectivity for SMCs over ECs”.
In the case of `C/C1=C/C[C@@H](/C(C)=C/c2csc(C)n2)OC(=O)C[C@H](O)C(C)(C)C(=O)[C@H](C)[C@@H](O)[C@@H](C)CCC1` [epothilone D], the “dose-response of cell viability” value [2] is reported as “dose-response characteristics consistent with utility to reduce or prevent restenosis”, the “release rate from polymer matrix” value ([3]; from poly(lactide)) is reported as “approximately 6 micrograms/day” and the “release rate from polymer matrix” value ([3]; from polyurethane) is reported as 1.58 micrograms/day.
For `COC1=C2C[C@@H](C)C[C@H](OC)[C@H](O)[C@@H](C)/C=C(\C)[C@H](OC(N)=O)[C@@H](OC)/C=C\C=C(/C)C(=O)NC(=CC1=O)C2=O` [geldanamycin, reference compound], the IC50 ([1]; Homo sapiens) was roughly 0.9 nM.
